In ChEMBL document CHEMBL4020719, “Synthesis and biological evaluation of novel indole-pyrimidine hybrids bearing morpholine and thiomorpholine moieties” (Eur J Med Chem, 2017):

What was measured:
MDA-MB-231 = experiment: Antiproliferative activity against human MDA-MB-231 cells after 48 hrs by MTT assay; format: functional, cell-based; conditions: MDA-MB-231, 48 h
Sus scrofa = species: Sus scrofa; experiment: Inhibition of pig brain tubulin polymerization at 10 uM by spectrophotometric analysis
HeLa [1] = experiment: cells; conditions: Homo sapiens, 48 h
MCF7 = experiment: cells; conditions: Homo sapiens, MCF7, 48 h
HCT-116 [2] = experiment: cells; conditions: Homo sapiens, HCT-116, 48 h
HEK293 = experiment: Antiproliferative activity against HEK293 cells after 48 hrs by MTT assay; format: cell-based; conditions: Homo sapiens, HEK293, 48 h
[3] = Inhibition of pig brain tubulin polymerization by spectrophotometric analysis; design: species or system Sus scrofa
HCT-116 [4] = experiment: Potency index, ratio of CA-4 IC50 to compound IC50 for human HCT116 cells; format: functional
HeLa [5] = experiment: Cell cycle arrest in human HeLa cells assessed as accumulation at G0/G1 phase at 1.25 uM after 12 hrs by FACS analysis (reference value: 61.74%); format: functional
HeLa [6] = experiment: Cell cycle arrest in human HeLa cells assessed as accumulation at G0/G1 phase at 2.5 uM after 12 hrs by FACS analysis (reference value: 61.74%); format: functional
HeLa [7] = experiment: Cell cycle arrest in human HeLa cells assessed as accumulation at G0/G1 phase at 5 uM after 12 hrs by FACS analysis (reference value: 61.74%); format: functional
HeLa [8] = experiment: Cell cycle arrest in human HeLa cells assessed as accumulation at S phase at 1.25 uM after 12 hrs by FACS analysis (reference value: 29.14%); format: functional
HeLa [9] = experiment: Cell cycle arrest in human HeLa cells assessed as accumulation at S phase at 2.5 uM after 12 hrs by FACS analysis (reference value: 29.14%); format: functional
HeLa [10] = experiment: Cell cycle arrest in human HeLa cells assessed as accumulation at S phase at 5 uM after 12 hrs by FACS analysis (reference value: 29.14%); format: functional
HeLa [11] = experiment: Cell cycle arrest in human HeLa cells assessed as accumulation at G2/M phase at 1.25 uM after 12 hrs by FACS analysis (reference value: 9.12%); format: functional
HeLa [12] = experiment: Cell cycle arrest in human HeLa cells assessed as accumulation at G2/M phase at 2.5 uM after 12 hrs by FACS analysis (reference value: 9.12%); format: functional
HeLa [13] = experiment: Cell cycle arrest in human HeLa cells assessed as accumulation at G2/M phase at 5 uM after 12 hrs by FACS analysis (reference value: 9.12%); format: functional
HeLa [14] = experiment: Cell cycle arrest in human HeLa cells assessed as accumulation at G2/M phase after 12 hrs by FACS analysis; format: functional, cell-based

Row | Compound | IC50 (MDA-MB-231) | inhibition (Sus scrofa) | IC50 (HeLa [1]) | IC50 (MCF7) | IC50 (HCT-116 [2]) | also measured
1 | COc1ccc(/C=C\c2cc(OC)c(OC)c(OC)c2)cc1O [COMBRETASTATIN A4] | 270 µM | 80% | 0.23 µM | 0.041 µM | 6.1 µM | 
2 | Cc1ccc2c(Nc3nc(N4CCOCC4)ncc3[N+](=O)[O-])c(C(=O)c3cccs3)[nH]c2c1 | 93.7 µM |  | > 100 µM | > 100 µM | 39.1 µM | 
3 | COc1ccc(C(=O)c2[nH]c3cc(Cl)ccc3c2Nc2nc(N3CCOCC3)ncc2[N+](=O)[O-])cc1 | > 100 µM | 14% | 47.1 µM | 35 µM | 24.4 µM | 
4 | COc1ccc(C(=O)c2[nH]c3ccccc3c2Nc2nc(N3CCOCC3)ncc2[N+](=O)[O-])cc1 | 8.69 µM | 14% | 4.32 µM | 57.1 µM | 6.4 µM | IC50 (HEK293): 14.8 µM
5 | O=C(c1ccc(-c2ccccc2)cc1)c1[nH]c2ccccc2c1Nc1nc(N2CCOCC2)ncc1[N+](=O)[O-] | 10.3 µM | 42% | 4.04 µM | 0.29 µM | 9.48 µM | IC50 (HEK293): 78.6 µM; IC50 [3]: 19.3 µM
6 | O=C(c1ccccc1)c1[nH]c2ccccc2c1Nc1nc(N2CCOCC2)ncc1[N+](=O)[O-] | 92.6 µM | 23% | 82.5 µM | 89.2 µM | 55.8 µM | 
7 | CCOC(=O)n1c(C(=O)c2ccccc2)c(Nc2nc(N3CCOCC3)ncc2[N+](=O)[O-])c2ccc(Cl)cc21 | 35.8 µM |  | > 100 µM | 78.4 µM | 80.6 µM | 
8 | O=C(c1ccc(Br)cc1)c1[nH]c2ccccc2c1Nc1nc(N2CCSCC2)ncc1[N+](=O)[O-] | > 100 µM |  | > 100 µM | > 100 µM | > 100 µM | 
9 | O=C(c1ccc(-c2ccccc2)cc1)c1[nH]c2cc(Cl)ccc2c1Nc1nc(N2CCOCC2)ncc1[N+](=O)[O-] | 58.7 µM |  | 16.6 µM | 42.7 µM | > 100 µM | 
10 | O=C(c1ccccc1)c1[nH]c2cc(Cl)ccc2c1Nc1nc(N2CCOCC2)ncc1[N+](=O)[O-] | > 100 µM | 9% | > 100 µM | > 100 µM | > 100 µM | 
11 | CN1CCN(c2ncc([N+](=O)[O-])c(Nc3c(C(=O)c4cccs4)[nH]c4cc(Cl)ccc34)n2)CC1 | 5.01 µM | 47% | 19.9 µM | 13.9 µM | 17.4 µM | IC50 (HEK293): > 100 µM
12 | Cc1ccc2c(Nc3nc(N4CCOCC4)ncc3[N+](=O)[O-])c(C(=O)c3ccc(Br)cc3)[nH]c2c1 | > 100 µM |  | > 100 µM | > 100 µM | > 100 µM | 
13 | Cc1ccc2c(Nc3nc(N4CCOCC4)ncc3[N+](=O)[O-])c(C(=O)c3ccc(-c4ccccc4)cc3)[nH]c2c1 | > 100 µM |  | 7.46 µM | 60.4 µM | > 100 µM | 
14 | Cc1ccc2c(Nc3nc(N4CCOCC4)ncc3[N+](=O)[O-])c(C(=O)c3ccc(Cl)cc3)[nH]c2c1 | > 100 µM |  | > 100 µM | 98.7 µM | > 100 µM | 
15 | Cc1ccc2c(Nc3nc(N4CCOCC4)ncc3[N+](=O)[O-])c(C(=O)c3ccccc3)[nH]c2c1 | 76.3 µM |  | 47.1 µM | 56.8 µM | 80.6 µM | 
16 | CCOC(=O)n1c(C(=O)c2ccc(OC)cc2)c(Nc2nc(N3CCOCC3)ncc2[N+](=O)[O-])c2ccccc21 | 3.01 µM | 19% | 5.52 µM | 2.13 µM | 2.99 µM | IC50 (HEK293): > 100 µM; Ratio IC50 (HCT-116 [4]): 2
17 | COc1ccc(C(=O)c2[nH]c3ccccc3c2Nc2nc(N3CCSCC3)ncc2[N+](=O)[O-])cc1 | > 100 µM |  | > 100 µM | > 100 µM | > 100 µM | 
18 | COc1ccc(C(=O)c2[nH]c3cc(C)ccc3c2Nc2nc(N3CCOCC3)ncc2[N+](=O)[O-])cc1 | 89.4 µM |  | 90.5 µM | > 100 µM | 44 µM | 
19 | O=C(c1ccc(Br)cc1)c1[nH]c2ccccc2c1Nc1nc(N2CCOCC2)ncc1[N+](=O)[O-] | 34.1 µM |  | 54.3 µM | 85.4 µM | 33.3 µM | 
20 | O=C(c1ccc(Cl)cc1)c1[nH]c2cc(Cl)ccc2c1Nc1nc(N2CCOCC2)ncc1[N+](=O)[O-] | > 100 µM |  | > 100 µM | 83.7 µM | > 100 µM | 
21 | O=C(c1[nH]c2ccccc2c1Nc1nc(N2CCOCC2)ncc1[N+](=O)[O-])C1CC1 | 89.4 µM |  | 49.6 µM | 89.4 µM | 73.5 µM | 
22 | O=C(c1ccccc1)c1[nH]c2ccccc2c1Nc1nc(N2CCSCC2)ncc1[N+](=O)[O-] | > 100 µM | 2% | > 100 µM | > 100 µM | > 100 µM | 
23 | O=C(c1cccs1)c1[nH]c2cc(Cl)ccc2c1Nc1nc(N2CCOCC2)ncc1[N+](=O)[O-] | > 100 µM | 19% | 94.7 µM | 69.4 µM | > 100 µM | 
24 | O=C(c1cccc(Br)c1)c1[nH]c2ccccc2c1Nc1nc(N2CCOCC2)ncc1[N+](=O)[O-] | 9.42 µM | 36% | 2.51 µM | 1.42 µM | 11.4 µM | IC50 (HEK293): 10.1 µM; Activity (HeLa [5]): 53.32%; Activity (HeLa [6]): 15.31%; Activity (HeLa [7]): 5.02%; Activity (HeLa [8]): 34.05%; Activity (HeLa [9]): 26.35%; Activity (HeLa [10]): 6.4%; Activity (HeLa [11]): 12.63%; Activity (HeLa [12]): 58.34%; Activity (HeLa [13]): 88.58%; Activity (HeLa [14]): Dose-dependent effect
